Data from EP1377579B1 (Aventis Pharmaceuticals Inc., priority 2000, dated 2002).

Key:
[1] = molecular target: cdk4/cyclin D1 (Homo sapiens, UniProt P11802); assay: Cyclin-dependent kinase assay, cdk4/cyclin D1; format: biochemical; settings: cyclin D1/cdk4; GST-pRb substrate, 10 µM ATP
[2] = test system: MDA-MB-435; assay: In vitro proliferation assay (MTT), MDA-MB-435; format: cell-based, human; settings: Homo sapiens, MDA-MB-435, MTT assay; value (SD, n) where given; read-out: MB-435 Breast (IC50 µM)
Summary of the method: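 A570 readout of DMSO-solubilized MTT formazan after 3-day compound exposure; IC50 from raw data. Cells plated 1000–2500/well and recovered overnight before dosing.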

[3] = test system: NCI-H460; assay: In vitro proliferation assay (MTT), NCI-H460; format: cell-based; settings: Homo sapiens, NCI-H460; MTT assay; value (SD, n) where given; read-out: H-460 Lung (IC50 µM)
Summary of the method: (§1)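 A570 of DMSO-solubilized formazan was the read-out. Seeding: 1000–2500 cells/well, overnight recovery. Compound exposure: 3 days. MTT incubation: 2–4 hr, 37 C. IC50 calculated from raw absorbance.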

[4] = test system: Jurkat; assay: In vitro proliferation assay (MTT), Jurkat; format: cell-based; settings: Homo sapiens, MTT assay, value (SD, n) where given, read-out: Jurkat Leuk. (IC50 µM)
Summary of the method: as §1

[5] = Red blood cell binding, mouse whole blood; format: in vitro ADME; settings: 30 minutes at 37°C, 500 ng/ml
Experimental: Compounds, including one positive control, are assessed for red blood cell (RBC) uptake, using a modified procedure based on the protocol reported in Sun, J.X.S., et al. High-performance liquid chromatographic analysis, plasma protein binding and red blood cell partitioning of phenprobamate. Biopharmaceutics and Drug Disposition, 8 (1987) 341-351.
Briefly, RBC uptake is evaluated by comparison of the levels in spiked plasma (n=3) and plasma isolated from spiked whole blood (n=3). Compounds are incubated with human and mouse whole blood, respectively, for 30 minutes at 37°C using a nominal concentration of 500 ng/ml. Following centrifugation, the plasma is removed and submitted for analysis. Each compound is also spiked into blank plasma at a nominal concentration of 500 ng/ml, and submitted for analysis. Levels in the two plasma samples (Cp' and Cp in the equation below) and the blood hematocrit are used to determine the red blood cell to plasma ratio (Crbc/Cp). (Crbc)/(Cp) = (Cpʹ)/(Cp•H)-((1-H))/(H) [formula] In equation 1, Cp' is the level of drug in the spiked "blank" plasma, Cp is the level of drug in the plasma of spiked whole blood, and H is the hematocrit. The hematocrit values are determined as 0.4 for human whole blood and 0.41 for mouse whole blood. The samples are analyzed with ESI LC/MS, using positive ion detection with an internal standard.
The red blood cell to plasma ratio is determined for each compound using equation 1. Tables 6 and 7 summarize the respective mean Crbc/Cp values and standard deviations for mouse and human whole blood, respectively, in descending order based on the red blood cell to plasma ratio, where"*" denotes Positive Control, and "ND" denotes Not Determined. MDL 108552 is included as a positive control for red blood cell uptake. Table 6. Red Blood Cell to Plasma Ratio for compounds in mouse whole blood

[6] = test system: Colo-205; assay: In vitro proliferation assay (MTT), Colo-205; format: cell-based; settings: Homo sapiens, COLO 205; MTT assay; value (SD, n) where given; read-out: Colo-205 Colon (IC50 µM)
Summary of the method: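 After 3 days of compound exposure, MTT was added to Colo-205 cultures for 2–4 h at 37 °C. Formazan was dissolved in DMSO and absorbance read at 570 nm. Cells had been plated at 1000–2500/well and left to recover overnight; IC50 values came from the raw readings.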

[7] = in vivo; settings: male, Hsd:ICR (CD-1), mouse, plasma
[8] = molecular target: cdk1/cyclin B (Homo sapiens, UniProt P06493); assay: Cyclin-dependent kinase assay, cdk1/cyclin B; settings: CDK1 IC50, nM, Histone H1, 10 µM ATP
cdk1/cyclin B, sequence (P06493 whole entry): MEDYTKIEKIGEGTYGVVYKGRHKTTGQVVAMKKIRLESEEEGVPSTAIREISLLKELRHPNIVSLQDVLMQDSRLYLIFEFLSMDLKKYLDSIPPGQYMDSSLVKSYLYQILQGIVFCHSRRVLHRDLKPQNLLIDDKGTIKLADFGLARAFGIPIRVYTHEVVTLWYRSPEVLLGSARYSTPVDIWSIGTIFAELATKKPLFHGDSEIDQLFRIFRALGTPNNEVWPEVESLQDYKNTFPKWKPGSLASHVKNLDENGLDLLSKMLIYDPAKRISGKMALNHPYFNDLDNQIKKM
cdk1/cyclin B, sequence (P14635 whole entry partner): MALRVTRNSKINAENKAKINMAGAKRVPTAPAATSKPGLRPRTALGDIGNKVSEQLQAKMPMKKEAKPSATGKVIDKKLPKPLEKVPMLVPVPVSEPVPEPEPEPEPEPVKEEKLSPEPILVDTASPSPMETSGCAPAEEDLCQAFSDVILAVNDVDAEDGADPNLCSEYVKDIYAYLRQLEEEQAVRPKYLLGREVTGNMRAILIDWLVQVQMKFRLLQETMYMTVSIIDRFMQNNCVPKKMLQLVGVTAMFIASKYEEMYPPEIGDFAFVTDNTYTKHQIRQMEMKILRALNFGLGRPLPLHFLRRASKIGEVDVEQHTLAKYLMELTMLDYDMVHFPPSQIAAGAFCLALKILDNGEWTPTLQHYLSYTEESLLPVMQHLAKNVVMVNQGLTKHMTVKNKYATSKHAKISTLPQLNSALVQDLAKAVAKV

cdk4/cyclin D1, sequence (P11802 whole entry): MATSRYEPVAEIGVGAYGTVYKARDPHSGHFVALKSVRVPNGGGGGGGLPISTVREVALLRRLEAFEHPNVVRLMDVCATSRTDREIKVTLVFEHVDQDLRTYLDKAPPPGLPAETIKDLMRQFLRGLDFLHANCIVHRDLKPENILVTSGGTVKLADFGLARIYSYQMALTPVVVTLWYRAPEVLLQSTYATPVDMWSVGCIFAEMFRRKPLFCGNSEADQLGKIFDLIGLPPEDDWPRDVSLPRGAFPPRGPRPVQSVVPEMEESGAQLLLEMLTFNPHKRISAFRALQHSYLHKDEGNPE
cdk4/cyclin D1, sequence (P24385 whole entry partner): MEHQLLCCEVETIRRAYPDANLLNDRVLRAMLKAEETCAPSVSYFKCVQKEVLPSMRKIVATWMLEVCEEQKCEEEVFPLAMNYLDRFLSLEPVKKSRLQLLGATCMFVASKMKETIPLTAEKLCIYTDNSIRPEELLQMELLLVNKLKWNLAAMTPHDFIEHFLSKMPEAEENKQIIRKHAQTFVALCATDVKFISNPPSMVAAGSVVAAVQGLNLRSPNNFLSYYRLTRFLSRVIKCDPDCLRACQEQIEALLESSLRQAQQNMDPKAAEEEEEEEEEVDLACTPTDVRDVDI

| IC50 [1] | IC50 [2] | IC50 [3] | IC50 [4] | Mean Red Blood Cell to Plasma Ratio [5] | IC50 [6] | AUC(0-inf) ([7]; iv, 3 mg/kg) | Cmax ([7]; iv, 3 mg/kg) | half-life ([7]; iv, 3 mg/kg) | concentration at 0.083 h ([7]; iv, 18 mg/kg) | concentration at 0.25 h ([7]; iv, 18 mg/kg) | concentration at 0.5 h ([7]; iv, 18 mg/kg) | concentration at 1 h ([7]; iv, 18 mg/kg) | concentration at 3 h ([7]; iv, 18 mg/kg) | concentration at 6 h ([7]; iv, 18 mg/kg) | concentration at 8 h ([7]; iv, 18 mg/kg) | IC50 [8] | concentration at 0.083 h ([7]; intravenous, 3 mg/kg) | concentration at 0.25 h ([7]; intravenous, 3 mg/kg) | concentration at 0.5 h ([7]; intravenous, 3 mg/kg) | Compound | also measured |
| --- | --- | --- | --- | --- | --- | --- | --- | --- | --- | --- | --- | --- | --- | --- | --- | --- | --- | --- | --- | --- | --- |
| 12 nM | 0.11 µM | 0.25 µM | 0.44 µM | 2.4 | 0.18 µM | 1110 ng·h/mL | 1690 ng/mL | 2 h | 1690 ± 224 ng/mL | 915 ± 15.2 ng/mL | 514 ± 45.2 ng/mL | 238 ± 38.7 ng/mL | 30.1 ± 8.5 ng/mL | 9.5 ± 1.8 ng/mL | 5.5 ± 0.9 ng/mL | 18 nM |  |  |  | Cl.Cl.N#Cc1ccc(S(=O)(=O)N2CCC(Nc3nc(N[C@H]4CC[C@H](N)CC4)nc4c3ncn4C3CCCC3)CC2)cc1 [compound 109, trans-N^2-(4-Amino-cyclohexyl)-9-cyclopentyl-N^6-[1-(4-cyano-benzenesulfonyl)-piperidin-4-yl]-9H-purine-2,6-diamine dihydrochloride] |  |
| 51 nM | 0.43 µM | 0.28 µM | 1.05 µM | 2.2 | 0.09 µM | 1460 ng·h/mL | 2450 ng/mL | 2 h | 2450 ± 287 ng/mL | 1090 ± 129 ng/mL | 588 ± 29.3 ng/mL | 335 ± 81.3 ng/mL | 33.8 ± 6.8 ng/mL | 10.9 ± 3 ng/mL | 6 ± 2 ng/mL | 17 nM |  |  |  | COC(=O)c1ccccc1S(=O)(=O)N1CCC(Nc2nc(N[C@H]3CC[C@H](N)CC3)nc3c2ncn3C2CCCC2)CC1.Cl.Cl [compound 111, trans-2-{4-[2-(4-Amino-cyclohexylamino)-9-cyclopentyl-9H-purin-6-ylamino]-piperidine-1-sulfonyl}-benzoic acid methyl ester dihydrochloride] |  |
| 224 nM | 0.87 µM | 0.07 µM | 0.11 µM | 2.4 | < 0.02 µM | 1460 ng·h/mL | 2810 ng/mL | 2.8 h |  |  |  |  |  |  |  | 32 nM | 2810 ± 272 ng/mL | 1700 ± 312 ng/mL | 435 ± 48 ng/mL | Cl.Cl.N[C@H]1CC[C@H](Nc2nc(NC3CCN(S(=O)(=O)c4cccc(C(F)(F)F)c4)CC3)c3ncn(C4CCCC4)c3n2)CC1 [compound 112, trans-N^2-(4-Amino-cyclohexyl)-9-cyclopentyl-N^6-[1-(3-trifluoromethyl-benzenesulfonyl)-piperidin-4-yl]-9H-purine-2,6-diamine dihydrochloride] | concentration at 1 h ([7]; intravenous, 3 mg/kg): 175 ± 42.4 ng/mL; concentration at 3 h ([7]; intravenous, 3 mg/kg): 45 ± 7.2 ng/mL; concentration at 6 h ([7]; intravenous, 3 mg/kg): 17.7 ± 1.7 ng/mL; concentration at 8 h ([7]; intravenous, 3 mg/kg): 13.6 ± 3.7 ng/mL |
| 91 nM | 0.15 µM | 0.32 µM | 0.22 µM | 3.4 | 0.09 µM | 1020 ng·h/mL | 3110 ng/mL | 1.6 h |  |  |  |  |  |  |  | 30 nM | 3110 ± 703 ng/mL | 419 ± 69.8 ng/mL | 133 ± 10.2 ng/mL | Cl.Cl.N[C@H]1CC[C@H](Nc2nc(NC3CCN(C(=O)Nc4ccc(C(F)(F)F)cc4)CC3)c3ncn(C4CCCC4)c3n2)CC1 [compound 149, trans-4-[2-(4-Amino-cyclohexylamino)-9-cyclopentyl-9H-purin-6-ylamino]-piperidine-1-carboxylic acid (4-trifluoromethyl-phenyl)-amide dihydrochloride] | concentration at 1 h ([7]; intravenous, 3 mg/kg): 59.8 ± 17.3 ng/mL; concentration at 3 h ([7]; intravenous, 3 mg/kg): 15.5 ± 4.8 ng/mL; concentration at 6 h ([7]; intravenous, 3 mg/kg): 4.1 ± 2.1 ng/mL; concentration at 8 h ([7]; intravenous, 3 mg/kg): 5.4 ± 0.5 ng/mL |
